From US10945932B2, “Prebiotic oral care compositions containing carboxylic acids” (COLGATE-PALMOLIVE COMPANY, priority 2013, dated 2021)
Like-named read-outs stand apart in the source and are kept apart here.

Assays:
Streptococcus salivarius = conditions: S salivarius, BHI
Protocol: (§1) Late exponential growth phase liquid cultures were prepared by transferring the respective bacterium from blood agar plates to BHI and overnight incubation at 37° C. in an anaerobic atmosphere for A. viscosus, V. parvula, F. nucleatum, P. gingivalis, P. intermedia, T forsythia, A. naeslundii, and C. sputigena, and in a 5% CO2 environment for S. salivarius, S. sanguinis, S. mitis, A. actinomycetemcomitans, S. mutans, S. sobrinus and S. gordonii. Overnight cultures were transferred to BHI and adjusted to a concentration of 1×10^7 CFU/ml (colony forming units per ml) by measuring the optical density at 600 nm (OD600) (BioRad SmartSpec 3000). For each strain, 200 μl of the bacterial suspension was added to a 96-well plate containing 20 μl of the respective carboxylic acids. Final concentrations of the carboxylic acids were set to 5, 10, 20 and 25 μmol/ml. […] Plates were incubated as previously described.
(§2) For each combination of bacterium/carboxylic acid, and for each of their respective controls (i.e. the particular bacterium in the nutritionally rich medium with no carboxylic acid), the optical density was measured at 630 nm (OD630) at 0 h, 24 h and 48 h (Thermo Scientific Multiskan Ascent). Additionally, the OD630 for combinations of bacterium/carboxylic acid grown in a 5% CO2 environment were also measured every hour between 0 h and 9 h.
(§3) The experiment was carried out on three different days (thus providing 3 biological replicas) and on each day the experiment was carried out in quadruple (thus providing 4 technical replicas) for each combination of bacterium with carboxylic acid and for each control. For each day and for each combination, the average (mean) of the values obtained (as detailed above) for the four technical replicas was calculated to provide a single value for each combination on each day.

[1] = tested on: beneficial oral bacteria and pathogenic oral bacteria; conditions: over 48 hours, threshold value of 1.25
Description: The beneficial oral bacteria tested were Streptococcus mitis, Streptococcus salivarius, Streptococcus sanguinis, Actinomyces viscosus, Streptococcus gordonii, Capnocytophaga sputigena, Actinomyces naeslundii and Veillonella parvula. The pathogenic oral bacteria tested were Streptococcus mutans, Prevotella intermedia, Porphyromonas gingivalis, Fusobacterium nucleatum, Tannerella forsythia, Aggregatibacter actinomycetemcomitans and Streptococcus sobrinus.
as §1, §2, §3
This value was selected in order to exclude low-stimulating metabolites and avoid false positive results.

Streptococcus sanguinis = conditions: S sanguinis, BHI
Protocol: as §1, §2, §3

Streptococcus gordonii = conditions: S gordonii, BHI
Protocol: as §1, §2, §3

Capnocytophaga sputigena = conditions: C sputigena, BHI
Protocol: as §1, §2, §3

Porphyromonas gingivalis = conditions: P gingivalis, BHI
Protocol: as §1, §2, §3

Veillonella parvula = conditions: V parvula, BHI
Protocol: as §1, §2, §3

Streptococcus mutans = conditions: S mutans, BHI
Protocol: as §1, §2, §3

Fusobacterium nucleatum = conditions: F nucleatum, BHI
Protocol: as §1, §2, §3

Streptococcus mitis = conditions: S mitis, BHI
Protocol: as §1, §2, §3

Actinomyces naeslundii = conditions: A naeslundii, BHI
Protocol: as §1, §2, §3

[2] = tested on: beneficial oral bacteria and pathogenic oral bacteria; experiment: Biofilm growth, prebiotic effect over the whole panel; type: cell-based; conditions: 25 μmol/ml; 48 hours; threshold value of 1.6
Protocol: Late exponential growth phase liquid cultures were prepared by transferring the respective bacterium from blood agar plates to BHI and overnight incubation at 37° C. in an anaerobic atmosphere for A. viscosus, V. parvula, F. nucleatum, P. gingivalis, P. intermedia, T. forsythia, A. naeslundii, and C. sputigena, and in a 5% CO2 environment for S. salivarius, S. sanguinis, S. mitis, A. actinomycetemcomitans, S. mutans, and S. gordonii. […] Additionally, for each bacterium tested, a background control, to correct for background staining, was added. This background control contained the bacterium tested and 0.03 weight % chlorhexidine, as an antiseptic. Plates were incubated as previously described. After 48 hrs the supernatant was removed from the wells of the plates. The wells were washed twice with 1×100 μL/PBS (phosphate buffered saline), fixed for 20 minutes with 96% vol. ethanol (96% vol. solution in water) and the biofilm retained at the bottom of the wells was stained with 1 weight % crystal violet (1 weight % solution in water). […] Quantification of the stained biofilm was performed by measuring the absorbance at 630 nm using a Multiskan Ascent microplate reader (Thermo Scientific).

[3] = tested on: Aggregatibacter actinomycetemcomitans; conditions: A actinomycetemcomitans, BHI
Protocol: as §1, §2, §3

Prevotella intermedia = conditions: P intermedia, BHI
Protocol: as §1, §2, §3

Streptococcus sobrinus = conditions: S sobrinus, BHI
Protocol: as §1, §2, §3

[4] = tested on: beneficial oral bacteria and pathogenic oral bacteria; experiment: Metabolic activity, prebiotic effect over the whole panel; type: cell-based; conditions: threshold value of 2

SMILES: O=C(O)CCC(=O)O [Succinic acid, succinic acid]
- extent of growth, maximal OD630 over 48 hr divided by maximal OD of control (control = 1) (Streptococcus salivarius; 5 μmol/ml): 1.0823
- extent of growth, maximal OD630 over 48 hr divided by maximal OD of control (control = 1) (Streptococcus salivarius; 10 μmol/ml): 0.8904
- extent of growth, maximal OD630 over 48 hr divided by maximal OD of control (control = 1) (Streptococcus salivarius; 20 μmol/ml): 0.2795
- extent of growth, maximal OD630 over 48 hr divided by maximal OD of control (control = 1) (Streptococcus salivarius; 25 μmol/ml): 0.2197
- prebiotic effect (extent of growth) ([1]; 20 μmol/ml): exhibited prebiotic effects
- prebiotic effect (extent of growth) ([1]; 25 μmol/ml): exhibited prebiotic effects
- extent of growth, maximal OD630 over 48 hr divided by maximal OD of control (control = 1) (Streptococcus sanguinis; 5 μmol/ml): 0.7980
- extent of growth, maximal OD630 over 48 hr divided by maximal OD of control (control = 1) (Streptococcus sanguinis; 10 μmol/ml): 0.6726
- extent of growth, maximal OD630 over 48 hr divided by maximal OD of control (control = 1) (Streptococcus sanguinis; 20 μmol/ml): 0.2724
- extent of growth, maximal OD630 over 48 hr divided by maximal OD of control (control = 1) (Streptococcus sanguinis; 25 μmol/ml): 0.2132
- extent of growth, maximal OD630 over 48 hr divided by maximal OD of control (control = 1) (Streptococcus gordonii; 5 μmol/ml): 0.8555
- extent of growth, maximal OD630 over 48 hr divided by maximal OD of control (control = 1) (Streptococcus gordonii; 10 μmol/ml): 0.7021
- extent of growth, maximal OD630 over 48 hr divided by maximal OD of control (control = 1) (Streptococcus gordonii; 20 μmol/ml): 0.2928
- extent of growth, maximal OD630 over 48 hr divided by maximal OD of control (control = 1) (Streptococcus gordonii; 25 μmol/ml): 0.1860
- extent of growth, maximal OD630 over 48 hr divided by maximal OD of control (control = 1) (Capnocytophaga sputigena; 5 μmol/ml): 0.9743
- extent of growth, maximal OD630 over 48 hr divided by maximal OD of control (control = 1) (Capnocytophaga sputigena; 10 μmol/ml): 0.7668
- extent of growth, maximal OD630 over 48 hr divided by maximal OD of control (control = 1) (Capnocytophaga sputigena; 20 μmol/ml): 0.6198
- extent of growth, maximal OD630 over 48 hr divided by maximal OD of control (control = 1) (Capnocytophaga sputigena; 25 μmol/ml): 0.4571
- extent of growth, maximal OD630 over 48 hr divided by maximal OD of control (control = 1) (Porphyromonas gingivalis; 5 μmol/ml): 1.0091
- extent of growth, maximal OD630 over 48 hr divided by maximal OD of control (control = 1) (Porphyromonas gingivalis; 10 μmol/ml): 0.8129
- extent of growth, maximal OD630 over 48 hr divided by maximal OD of control (control = 1) (Porphyromonas gingivalis; 20 μmol/ml): 0.4103
- extent of growth, maximal OD630 over 48 hr divided by maximal OD of control (control = 1) (Porphyromonas gingivalis; 25 μmol/ml): 0.4061
- extent of growth, maximal OD630 over 48 hr divided by maximal OD of control (control = 1) (Veillonella parvula; 5 μmol/ml): 1.1624
- extent of growth, maximal OD630 over 48 hr divided by maximal OD of control (control = 1) (Veillonella parvula; 10 μmol/ml): 1.1922
- extent of growth, maximal OD630 over 48 hr divided by maximal OD of control (control = 1) (Veillonella parvula; 20 μmol/ml): 1.4603
- extent of growth, maximal OD630 over 48 hr divided by maximal OD of control (control = 1) (Veillonella parvula; 25 μmol/ml): 1.3566
- extent of growth, maximal OD630 over 48 hr divided by maximal OD of control (control = 1) (Streptococcus mutans; 5 μmol/ml): 0.8643
- extent of growth, maximal OD630 over 48 hr divided by maximal OD of control (control = 1) (Streptococcus mutans; 10 μmol/ml): 0.8599
- extent of growth, maximal OD630 over 48 hr divided by maximal OD of control (control = 1) (Streptococcus mutans; 20 μmol/ml): 0.8734
- extent of growth, maximal OD630 over 48 hr divided by maximal OD of control (control = 1) (Streptococcus mutans; 25 μmol/ml): 0.8448
- extent of growth, maximal OD630 over 48 hr divided by maximal OD of control (control = 1) (Fusobacterium nucleatum; 5 μmol/ml): 0.9913
- extent of growth, maximal OD630 over 48 hr divided by maximal OD of control (control = 1) (Fusobacterium nucleatum; 10 μmol/ml): 1.0196
- extent of growth, maximal OD630 over 48 hr divided by maximal OD of control (control = 1) (Fusobacterium nucleatum; 20 μmol/ml): 0.2006
- extent of growth, maximal OD630 over 48 hr divided by maximal OD of control (control = 1) (Fusobacterium nucleatum; 25 μmol/ml): 0.1511
- extent of growth, maximal OD630 over 48 hr divided by maximal OD of control (control = 1) (Streptococcus mitis; 5 μmol/ml): 0.7273
- extent of growth, maximal OD630 over 48 hr divided by maximal OD of control (control = 1) (Streptococcus mitis; 10 μmol/ml): 0.7615
- extent of growth, maximal OD630 over 48 hr divided by maximal OD of control (control = 1) (Streptococcus mitis; 20 μmol/ml): 0.4339
- extent of growth, maximal OD630 over 48 hr divided by maximal OD of control (control = 1) (Streptococcus mitis; 25 μmol/ml): 0.1591
- extent of growth, maximal OD630 over 48 hr divided by maximal OD of control (control = 1) (Actinomyces naeslundii; 5 μmol/ml): 0.9975
- extent of growth, maximal OD630 over 48 hr divided by maximal OD of control (control = 1) (Actinomyces naeslundii; 10 μmol/ml): 0.5885
- extent of growth, maximal OD630 over 48 hr divided by maximal OD of control (control = 1) (Actinomyces naeslundii; 20 μmol/ml): 0.2228
- extent of growth, maximal OD630 over 48 hr divided by maximal OD of control (control = 1) (Actinomyces naeslundii; 25 μmol/ml): 0.1840
- prebiotic effect (biofilm growth) [2]: exhibited prebiotic effects
- extent of growth, maximal OD630 over 48 hr divided by maximal OD of control (control = 1) ([3]; 5 μmol/ml): 0.6497
- extent of growth, maximal OD630 over 48 hr divided by maximal OD of control (control = 1) ([3]; 10 μmol/ml): 0.4197
- extent of growth, maximal OD630 over 48 hr divided by maximal OD of control (control = 1) ([3]; 20 μmol/ml): 0.1940
- extent of growth, maximal OD630 over 48 hr divided by maximal OD of control (control = 1) ([3]; 25 μmol/ml): 0.1968
- extent of growth, maximal OD630 over 48 hr divided by maximal OD of control (control = 1) (Prevotella intermedia; 5 μmol/ml): 0.8288
- extent of growth, maximal OD630 over 48 hr divided by maximal OD of control (control = 1) (Prevotella intermedia; 10 μmol/ml): 0.4471
- extent of growth, maximal OD630 over 48 hr divided by maximal OD of control (control = 1) (Prevotella intermedia; 20 μmol/ml): 0.0944
- extent of growth, maximal OD630 over 48 hr divided by maximal OD of control (control = 1) (Prevotella intermedia; 25 μmol/ml): 0.0921
- extent of growth, maximal OD630 over 48 hr divided by maximal OD of control (control = 1) (Streptococcus sobrinus; 5 μmol/ml): 0.9460
- extent of growth, maximal OD630 over 48 hr divided by maximal OD of control (control = 1) (Streptococcus sobrinus; 10 μmol/ml): 0.8269
- extent of growth, maximal OD630 over 48 hr divided by maximal OD of control (control = 1) (Streptococcus sobrinus; 20 μmol/ml): 0.4744
- extent of growth, maximal OD630 over 48 hr divided by maximal OD of control (control = 1) (Streptococcus sobrinus; 25 μmol/ml): 0.2284
- prebiotic effect (metabolic activity) ([4]; 24 hrs): exhibited prebiotic effects
- prebiotic effect (metabolic activity) ([4]; 48 hrs): exhibited prebiotic effects
